Reference: patent US6914045B2, “Glycopeptide antibiotics” (Wyeth Holdings Corporation, priority 2001, dated 2005)
Converted amounts (≈) assume the structure as drawn.

Experiments:
Experiment in all cases: in vitro antibacterial evaluation, MIC by broth dilution
Type in all cases: cell-based
[1] = system: Enterococcus sp.; conditions: broth dilution, 18 hours at 35° C.
In short: (§1)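 MIC = lowest antibiotic concentration preventing visible growth; inoculum 5×10^5 CFU/mL; drug range 64-0.06 μg/mL; Muller-Hinton II […]; NCCLS M7-A2 guidance.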

[2] = system: Escherichia coli
In short: as §1

[3] = system: Staphylococcus sp.; conditions: broth dilution, 18 hours at 35° C.
In short: as §1

[4] = system: Streptococcus sp.; conditions: broth dilution, 18 hours at 35° C.
In short: as §1

For `CC(c1ccccc1)C1NC(=O)CNC(=O)C(CO)NC(=O)C(C(O)C2CNC(=N)N2C2OC(CO)C(O)C(O)C2O)NC(=O)C(C(O)C2CNC(=N)N2)NC(=O)C(Cc2ccc(OC3OC(CO)C(OC4OC5COC(c6ccc(C(C)(C)C)cc6)OC5C(O)C4O)C(O)C3O)cc2)NC1=O` (centres unmarked) [Example 147], the “MIC Enterococcus avium (GC 4558)” value ([1]; Enterococcus avium (GC 4558)) was 0.5 to 2 µg/mL, the “MIC Enterococcus faecalis (ATCC 29212)” value ([1]; Enterococcus faecalis (ATCC 29212)) was 0.5 to 2 µg/mL and the “MIC Enterococcus faecalis (GC 2242)” value ([1]; Enterococcus faecalis (GC 2242)) was 0.5 to 1 µg/mL. For the same molecule, the “MIC Enterococcus faecalis (GC 2691)” value ([1]; Enterococcus faecalis (GC 2691)) was 0.5 µg/mL (≈ 0.347 µM), the “MIC Enterococcus faecalis (GC 3059)” value ([1]; Enterococcus faecalis (GC 3059)) was 0.5 µg/mL (≈ 0.347 µM) and the “MIC Enterococcus faecalis (GC 4552)” value ([1]; Enterococcus faecalis (GC 4552)) was 0.5 to 1 µg/mL. For the same molecule, the “MIC Enterococcus faecalis (GC 4553)” value ([1]; Enterococcus faecalis (GC 4553)) was 0.5 to 1 µg/mL, the “MIC Enterococcus faecalis (GC 4554)” value ([1]; Enterococcus faecalis (GC 4554)) was 0.5 to 1 µg/mL and the “MIC Enterococcus faecalis (GC 6189)” value ([1]; Enterococcus faecalis (GC 6189)) was 0.5 µg/mL (≈ 0.347 µM). The “MIC Enterococcus faecium (GC 2243)” value ([1]; Enterococcus faecium (GC 2243)) was 1 to 2 µg/mL, the “MIC Enterococcus faecium (GC 4556)” value ([1]; Enterococcus faecium (GC 4556)) was 2 µg/mL (≈ 1.39 µM) and the “MIC Enterococcus faecium (GC 4557)” value ([1]; Enterococcus faecium (GC 4557)) was 1 to 2 µg/mL. For the same molecule, the “MIC Enterococcus faecalis (ATCC 29212)” value ([1]; strain ATCC 29212) was 0.5 to 2 µg/mL, the “MIC Enterococcus faecalis (GC 2242)” value ([1]; strain GC 2242) was 0.5 to 1 µg/mL and the “MIC Enterococcus faecium (GC 2243)” value ([1]; strain GC 2243) was 1 to 2 µg/mL. The “MIC Enterococcus faecalis (GC 2691)” value ([1]; strain GC 2691) was 0.5 µg/mL (≈ 0.347 µM), the “MIC Enterococcus faecalis (GC 3059)” value ([1]; strain GC 3059) was 0.5 µg/mL (≈ 0.347 µM) and the “MIC Enterococcus faecalis (GC 4552)” value ([1]; strain GC 4552) was 0.5 to 1 µg/mL. The “MIC Enterococcus faecalis (GC 4553)” value ([1]; strain GC 4553) was 0.5 to 1 µg/mL, the “MIC Enterococcus faecalis (GC 4554)” value ([1]; strain GC 4554) was 0.5 to 1 µg/mL and the “MIC Enterococcus faecium (GC 4556)” value ([1]; strain GC 4556) was 2 µg/mL (≈ 1.39 µM). The “MIC Enterococcus faecium (GC 4557)” value ([1]; strain GC 4557) was 1 to 2 µg/mL, the “MIC Enterococcus avium (GC 4558)” value ([1]; strain GC 4558) was 0.5 to 2 µg/mL and the “MIC Enterococcus faecalis (GC 6189)” value ([1]; strain GC 6189) was 0.5 µg/mL (≈ 0.347 µM). For the same molecule, the “MIC Escherichia coli (ATCC 25922)” value ([2]; strain ATCC 25922, 18 hours at 35° C.) was 64-64 μg/mL, the “MIC Escherichia coli (GC 4559)” value ([2]; strain GC 4559, 18 hours at 35° C.) was 64 µg/mL (≈ 44.5 µM) and the “MIC Escherichia coli (GC 4560)” value ([2]; strain GC 4560, 18 hours at 35° C.) was 0.5 to 2 µg/mL. The “MIC Staphylococcus aureus (GC 3051)” value ([3]; strain GC 3051) was 0.5 µg/mL (≈ 0.347 µM), the “MIC Staphylococcus aureus (GC 3053)” value ([3]; strain GC 3053) was 0.5 µg/mL (≈ 0.347 µM) and the “MIC Staphylococcus aureus (GC 4542)” value ([3]; strain GC 4542) was 0.5 to 1 µg/mL. The “MIC Staphylococcus aureus-SMITH (GC 4543)” value ([3]; strain GC 4543) was 0.5 to 1 µg/mL, the “MIC Staphylococcus aureus (GC 4544)” value ([3]; strain GC 4544) was 0.5 to 1 µg/mL and the “MIC Staphylococcus aureus (GC 4545)” value ([3]; strain GC 4545) was 0.5 to 1 µg/mL. The “MIC Staphylococcus haemolyticus (GC 4546)” value ([3]; strain GC 4546) was 1 to 2 µg/mL, the “MIC Coagulase Negative Staphylococcus (GC 4547)” value ([3]; strain GC 4547) was 1 to 2 µg/mL and the “MIC Coagulase Negative Staphylococcus (GC 4548)” value ([3]; strain GC 4548) was under 0.5 to 1 µg/mL. The “MIC Coagulase Negative Staphylococcus (GC 4549)” value ([3]; strain GC 4549) was under 0.5 to 1 µg/mL, the “MIC Coagulase Negative Staphylococcus (GC 4551)” value ([3]; strain GC 4551) was 1 µg/mL (≈ 0.695 µM) and the “MIC Coagulase Negative Staphylococcus (GC 6257)” value ([3]; strain GC 6257) was 2 µg/mL (≈ 1.39 µM). For the same molecule, the “MIC Coagulase Negative Staphylococcus (ID-3941)” value ([3]; strain ID-3941) was 1 µg/mL (≈ 0.695 µM), the “MIC Staphylococcus aureus-SMITH (GC 4543)” value ([3]; strain SMITH GC 4543) was 0.5 to 1 µg/mL and the “MIC Streptococcus agalactiae (GC 4564)” value ([4]; Streptococcus agalactiae (GC 4564)) was under 0.12 µg/mL. For the same molecule, the “MIC Streptococcus pyogenes (GC 4563)” value ([4]; Streptococcus pyogenes (GC 4563)) was over 0.12 µg/mL, the “MIC Streptococcus pyogenes (ID-3187)” value ([4]; Streptococcus pyogenes (ID-3187)) was under 0.5 µg/mL and the “MIC Streptococcus pyogenes (GC 4563)” value ([4]; strain GC 4563) was over 0.12 µg/mL. For the same molecule, the “MIC Streptococcus agalactiae (GC 4564)” value ([4]; strain GC 4564) was under 0.12 µg/mL and the “MIC Streptococcus pyogenes (ID-3187)” value ([4]; strain ID-3187) was under 0.5 µg/mL.
